Paper PMC8602723, “Comparative assessment of antimicrobial, antiradical and cytotoxic activities of cannabidiol and its propyl analogue cannabidivarin” (Scientific Reports, 2021)
Where two headings read alike, the source gives them in different places.

Columns and labels:
A549 cells = experiment: LDH assay (plasma membrane damage); type: cell-based; conditions: Homo sapiens, read-out: IC50 LDH assay
Experimental: (§1) LDH assay is a high-throughput method based on the release of the LDH cytoplasmic enzyme from the cytosol into the extracellular space when the plasma membrane is damaged[29],[30]. Plasma membrane damage related to the amount of lysed cells was monitored by LDH assay, and the results were used for indirectly detecting the necrosis correlated to the leakage of the cytosolic enzyme due the loss of membrane permeability control[29],[30]. This assay was performed with the protocol described by Lehmann and colleagues.
(§2) Briefly, 1 × 10^4 A549 and Caco-2 cells and 2 × 10^4 HepG2, MDA-MB-231 and TelCOFS02MA cells were seeded in 100 µL of 1% FBS-fresh medium in each well of 96-well plates and incubated for 24 h at 37 °C with 95% humidity and 5% CO2. Then, the medium was removed and replaced with 100 µL of medium with different concentrations of CBD and CBDV, which were chosen on the basis of range-finding tests (as previously indicated). The plates were incubated at 37 °C for 72 h. In all experiments, the background control (wells with medium and without cells to obtain information about the LDH activity in the assay medium), low control (wells containing cells exposed only to the medium to determine spontaneous LDH release), high control (wells containing cells exposed to 2% Triton-X100 for 10 min before performing the assay to determine maximum LDH release), and solvent controls (2.5% methanol) were included. One hundred microlitres of supernatant was removed carefully from each well and transferred into corresponding wells in optically clear 96-well flat bottom microplates. One hundred microlitres of freshly prepared reaction mixture (Diaphorase (Catalyst)/NAD^+ /INT/sodium lactate) was added to each well and incubated for 30 min at 20 °C in darkness. Thus, NAD^+ was reduced to NADH/H^+ by the LDH-catalysed conversion of lactate to pyruvate. Then, the catalyst transferred H/H^+ from NADH/H^+ to the tetrazolium salt INT, which was reduced to formazan. To arrest the reaction, 50 µL/well of 1 N HCl was added. The spectrophotometric absorbance was determined at 492 nm. The absorbance of the background control wells was subtracted from all other values.
(§3) The results are reported as percentages of cytotoxicity, which is linked to the percentage of LDH released from damaged plasma membranes, calculated as follows:3 IC%=OD492sample-OD492lowcontrol/OD492highcontrol-OD492lowcontrol·100
(§4) IC50 values (concentrations of the sample to obtain 50% cytotoxicity) were calculated.
(§5) All results from five independent experiments are expressed as the IC50 or EC50 as determined by analysis with Prism 5 software (GraphPad Inc., San Diego, CA, USA) and nonlinear regression (log agonist vs. normalized response-variable slope) with a 95% confidence range. Lowest observed adverse effect concentrations (LOAECs) were calculated by one-way ANOVA and Dunnett’s comparison test. Differences compared to the controls were considered significant as follows: *p < 0.05, **p < 0.001 and ***p < 0.0001.

Caco-2 cells = experiment: LDH assay (plasma membrane damage); type: cell-based; conditions: Homo sapiens, read-out: IC50 LDH assay
Experimental: as §1, §2, §3, §4, §5

Hep G2 cells = experiment: LDH assay (plasma membrane damage); type: cell-based; conditions: Homo sapiens, read-out: IC50 LDH assay
Experimental: as §1, §2, §3, §4, §5

MDA-MB-231 cells = experiment: LDH assay (plasma membrane damage); type: cell-based; conditions: Homo sapiens, read-out: IC50 LDH assay
Experimental: as §1, §2, §3, §4, §5

[1] = tested on: Escherichia coli (ATCC 13762); experiment: Microbial susceptibility test (growth inhibition); type: cell-based; conditions: read-out: IC50 bacterial growth inhibition
Experimental: (§6) Escherichia coli (ATCC 13762) and S. aureus (ATCC 6538) were cultured overnight in tryptic soy broth and soybean-casein digestive medium (TSB, Oxoid, Milano, Italy) at 37 °C[70]. Subsequently, using 96-well plates (Sarstedt, Italy), 100 µL of TSB, 100 µL of CBD (5–160 µM, DF = 2) or CBDV (5.46–175 µM, DF = 2) and 100 µL of the bacterial culture corresponding to 1 × 10^4 CFU were added sequentially to each well. CBD and CBDV final concentrations in wells equal to 1.66–53 and 1.82–58.19 µM, respectively, were chosen on the basis of range-finding tests. TSB alone was used as the blank, physiologic solution (0.9% NaCl) was used as the negative control, methanol 5% v/v (final percentage in wells equal to 1.6% v/v) was used as the solvent control, and streptomycin at 60 µM (final concentration in the well equal to 20 µM) was used as the positive control. Experiments were conducted in sextuplicate. The plates were covered with sterile film to prevent evaporation and incubated at 37 °C. After 24, 48 and 72 h, the optical density of each well was recorded at 620 nm using a microplate reader. The bacterial growth inhibition percentage (IC%) was determined as follows:7 IC%=1-OD620testsample-OD620blank/OD620negativecontrol-OD620blank·100
as §5

S. aureus (ATCC 6538) = experiment: Microbial susceptibility test (growth inhibition); type: cell-based; conditions: Staphylococcus aureus, read-out: IC50 bacterial growth inhibition
Experimental: as §6, §5

[2] = tested on: SZ95, normal-like sebocytes; parameters: method as in PMID 27094344; conditions: 24 h of treatment; cited from earlier work
S. aureus = tested on: S. aureus; parameters: method as in PMID 33469147; conditions: S. aureus exposed at 6–14 µM; cited from earlier work

SMILES	IC50 (A549 cells; A549, 72 h) [µM]	IC50 (Caco-2 cells; Caco-2, 72 h) [µM]	IC50 (Hep G2 cells; HepG2, 72 h) [µM]	IC50 (MDA-MB-231 cells; MDA-MB-231, 72 h) [µM]	IC50 ([1]; ATCC13762, 72 h) [µM]	IC50 (S. aureus (ATCC 6538); ATCC6538, 72 h) [µM]	concentration giving a significant decrease in cell viability (MTT) [2] [nM]	IC50 (A549 cells; A549, 72 h exposure, 95% confidence interval in brackets) [µM]	IC50 (Caco-2 cells; Caco-2, 72 h exposure, 95% confidence interval in brackets) [µM]	IC50 (Hep G2 cells; HepG2, Hep G2, 72 h exposure, 95% confidence interval in brackets) [µM]	IC50 (MDA-MB-231 cells; MDA-MB-231, 72 h exposure, 95% confidence interval in brackets) [µM]	IC50 ([1]; ATCC13762, E. coli, 72 h of incubation, 95% confidence range in brackets) [µM]	IC50 (S. aureus (ATCC 6538); ATCC6538, S. aureus, 24 h of exposure, 95% confidence range in brackets) [µM]	IC50 (S. aureus (ATCC 6538); ATCC6538, S. aureus, 48 h of exposure, 95% confidence range in brackets) [µM]	IC50 (S. aureus (ATCC 6538); ATCC6538, S. aureus, 72 h of exposure, 95% confidence range in brackets) [µM]	protein, DNA, RNA and peptidoglycan synthesis (S. aureus)
C=C(C)[C@@H]1CCC(C)=C[C@H]1c1c(O)cc(CCC)cc1O [CBDV, cannabidivarin]	26.3	29.1	21.2	33.8	35.5	30.8	100	–	–	–	–	–	–	–	–	–
C=C(C)[C@@H]1CCC(C)=C[C@H]1c1c(O)cc(CCCCC)cc1O [CBD, Cannabidiol]	–	–	–	–	–	–	–	24	22.8	18.1	22.1	29.1	10.3	4.86	1.84	inhibited
